Experimental data reported in patent US10213409B2, “Substituted benzofurans, benzothiophenes, benzoselenophenes and indoles and their use as tubulin polymerisation inhibitors” (Bionomics Limited, priority 2006, dated 2019).

Legend:
tubulin = test: Tubulin Polymerisation Assay (fluorescent-based kit); type: biochemical; conditions: compared with CA4 (1), FIG. 3
Description: Tubulin Polymerisation Assay:
Tubulin polymerisation inhibition assays were performed using a fluorescent-based detection kit (#BK011, Cytoskeleton) according to the instructions of the manufacturer. The test compound was added to a 2 mg/ml tubulin solution containing 20% glycerol and 1 mM GTP in 1× Buffer 1 (Buffer 1: 80 mM Piperazine-N,N′-bis[2-ethanesulfonic acid] sequisodium salt; 2 mM magnesium chloride; 0.5 mM Ethylene glycol-bis(b-amino-ethyl ether)N,N,N′,N′-tetra-acetic acid, pH 6.9, 10 uM fluorescent reporter). Fluorescence was measured over a period of 42 minutes at 1 minute intervals. Increased fluorescence indicates increase in tubulin polymerisation. There is a ten-fold increase in the affinity of the fluorescent reporter for polymerised tubulin compared to monomeric tubulin subunits. The result is a fluorescence signal that closely follows tubulin polymerisation.

[1] = system: Human umbilical vein endothelial cells (HUVECs), tumour type activated (Tum); test: Proliferation Assay - Activated Endothelium (MTT); type: cell-based; conditions: for IC50: Homo sapiens, HUVEC, tumour type activated endothelial cells
Description: Proliferation Assay—Activated Endothelium:
(§1) Cells were cultured overnight at 37° C. 5% CO2. Medium was subsequently replaced with fresh medium including the compound or negative control. Cells were cultured for a period of 48 hrs. An MTT assay was performed to measure changes in cell numbers. Briefly, 20 μl of MTT reagent was added to cells containing 100 μl of EGM2 and incubated at 37° C. for 2 hours.

MCF-7 = test: Growth inhibition, Sulforhodamine B (SRB) or Systmex cell counting (CC) assay, MCF-7; type: cell-based; conditions: Homo sapiens, MCF7, concentration required to inhibit net cell growth by 50%, read-out: Cancer cell line IC50
[2] = system: Human umbilical vein endothelial cells (HUVECs), normal quiescent type (Norm); test: Proliferation Assay - Quiescent Endothelium (MTT); type: cell-based; conditions: HUVEC
Description: Proliferation Assay—Quiescent Endothelium:
as §1, with “EBM2+0.5% FBS” for “EGM2”

MDA-MB-231 = test: Growth inhibition, Sulforhodamine B (SRB) or Systmex cell counting (CC) assay, MDA-MB-231; type: cell-based; conditions: Homo sapiens; MDA-MB-231 (footnote b); concentration required to inhibit net cell growth by 50%; read-out: Cancer cell line IC50
[3] = system: MDA MB 231 orthotopic xenografts; test: Vascular Disruption Assay (tumor perfusion, Hoechst 33342); type: in vivo, BALB/c-nu/nu mice; conditions: compared with CA4 / CA4P, FIG. 4; i.v., 24 hours after injection
Description: Vascular Disruption Assay:
Female athymic BALB/c-nu/nu mice (nude mice) were used for this study. Mice were between 6-8 weeks old and were purchased from the Animal Resource Centre, Perth, Western Australia and allowed to acclimatize for a couple of days. All the animals were housed under pathogen-free conditions and cared for in accordance with Flinders University of South Australia and NH&MRC guidelines and the Australian Code of Practice for the care and use of animals for scientific purposes. The human breast cancer MDA MB 231 was grown as orthotopic xenografts in the mammary fat pad of nude mice. Each mouse was injected with 2×10^6 cells in 50 μl Dulbecco's PBS subcutaneously just above the mammary fat pad, below the right forward limb. Tumors were selected for treatment when they reached a diameter of […] (3 weeks after implantation). The test compound (Example 29) was dissolved in saline solution and injected intravenously at concentrations ranging from 150 mg/kg-1 mg/kg in a total volume of 400 ul. […] Non-tumor regions were mapped on Hoechst 33342 composite images and excluded from the quantitation analysis. Quantitation was performed by measuring the pixel area of Hoechst 33342 staining and the total pixel area of the tumor region. Perfusion was expressed as a percentage of Hoechst 33342 stained area to total tumor area (see FIG. 4).

[4] = system: MDA-MB-231 solid orthotopic tumors; test: Tumor Growth Inhibition; type: in vivo, Balb/c nu/nu mice; conditions: 40 mg/kg i.v., two cycles, 72 days; vs vehicle, significant from day 4 (p<0.001) to Day 70, FIG. 5
Description: Balb/c nu/nu mice bearing MDA-MB-231 solid orthotopic tumors were treated with compound Example 29 at 40 mg/kg. Animals were i.v. dosed with a total of two cycles of Example 29 treatment. Each cycle was dosing on […] followed by a three week no-dosing period. Tumor growth represented as a ratio to initial tumor volume is shown over a total of 72-days.
Tumor growth as well as animal health were monitored for up to 72 days post-day 1 of treatment. […] Significant differences in tumor growth between Example 29 treated (n=64) and vehicle treated (n=20) animals were observed as early as day 4 (p<0.001; unpaired t-test; Prism® analysis) through to Day 70.

For COc1cc(C(=O)c2c(C)oc3c(O)c(OC)ccc23)cc(OC)c1OC [Example 11, 2-Methyl-7-hydroxy-3-(3,4,5-trimethoxybenzoyl)-6-methoxybenzofuran], the “potency in inhibiting tubulin polymerisation” value (tubulin) was “significantly greater potency than CA4 (1)”, the IC50 [1] was 0.1 to 1 nM and the “potency towards activated (tumour) versus quiescent (normal) endothelial cells” value ([1]; comparison of activated and quiescent HUVEC assays, FIGS. 1 and 2, Table 1) was “higher potency towards tumour endothelial cells (activated) over normal endothelial cells (quiescent)”. The IC50 (MCF-7) was 2 nM and the IC50 [2] was 10 to 100 nM.

COC(=O)c1oc2c(O)c(OC)ccc2c1C(=O)c1cc(OC)c(OC)c(OC)c1 [Example 17, 7-Hydroxy-6-methoxy-3-(3,4,5-trimethoxy-benzoyl)-benzofuran-2-methylcarboxylate] gave an IC50 [1] of 1 to 10 nM, an IC50 (MDA-MB-231) of 1 to 10 nM and an IC50 [2] of 1 to 10 nM.

For COc1cc(C(=O)c2c(NCCO)oc3c(O)c(OC)ccc23)cc(OC)c1OC [Example 20, [7-Hydroxy-2-(2-hydroxy-ethylamino)-6-methoxy-benzofuran-3-yl]-(3,4,5-trimethoxy-phenyl)methanone], the IC50 [1] was 1 to 10 nM, the IC50 (MDA-MB-231) was 1 to 10 nM and the IC50 [2] was 1 to 10 nM.

COc1cc(C(=O)c2c(NCCN(C)C)oc3c(O)c(OC)ccc23)cc(OC)c1OC [Example 21] showed an IC50 [1] of 10 to 100 nM, an IC50 (MDA-MB-231) of 10 to 100 nM and an IC50 [2] of 10 to 100 nM.

COc1cc(C(=O)c2c(N(C)C)oc3c(O)c(OC)ccc23)cc(OC)c1OC [Example 22, (2-N,N′-Dimethylamino-7-hydroxy-6-methoxy-benzofuran-3-yl)-(3,4,5-trimethoxy-phenyl)-methanone] was tested, and the IC50 [1] was 1 to 10 nM, the IC50 (MDA-MB-231) was 1 to 10 nM and the IC50 [2] was 1 to 10 nM.

COC(=O)CNc1oc2c(O)c(OC)ccc2c1C(=O)c1cc(OC)c(OC)c(OC)c1 [Example 24, [7-Hydroxy-6-methoxy-3-(3,4,5-trimethoxy-benzoyl)-benzofuran-2-ylamino]-acetic acid methyl ester] gave an IC50 [1] of 1 to 10 nM, an IC50 (MDA-MB-231) of 1 to 10 nM and an IC50 [2] of 1 to 10 nM.

In the case of COc1cc(C(=O)c2c(Nc3cccnc3)oc3c(O)c(OC)ccc23)cc(OC)c1OC [Example 25, [7-Hydroxy-6-methoxy-2-(pyridin-3-ylamino)-benzofuran-3-yl]-(3,4,5-trimethoxy-phenyl)-methanone], the IC50 [1] is reported as 1 to 10 nM, the IC50 (MDA-MB-231) is reported as 1 to 10 nM and the IC50 [2] is reported as 1 to 10 nM.

COc1cc(C(=O)c2c(C)oc3c(OP(=O)([O-])[O-])c(OC)ccc23)cc(OC)c1OC.[Na+].[Na+] [Example 29, Disodium 6-methoxy-2-methyl-3-(3,4,5-trimethoxybenzoyl)benzofuran-7-yl phosphate] was tested, and the “potency at shutting-down tumour vasculature (reduction in tumour perfusion)” value [3] was “significantly greater potency than CA4 (1)” and the “tumor growth (ratio to initial tumor volume)” value [4] was “tumor growth inhibition”.
